Common to all, as to assay type: cell-based, human
Test [1] relates to platelet aggregation induced by arachidonic acid in platelet-rich plasma. Kind of test: Inhibition of arachidonic acid-induced platelet aggregation in platelet-rich plasma (aggregometer). Particulars: amount in mg inhibiting aggregation by 50% in 1 mL platelet-rich plasma, arachidonic acid 500 U/L, average of at least 3 IC50s; for IC50: Homo sapiens. Here is the method:
(§1) The experimental protocol described below was devised to determine the […] values of compounds isolated as described in 1.1.3. Crude bioassays to evaluate inhibition of platelet aggregation in vitro were performed on some crude extracts (data not shown) to help select fine fractions/compounds identified by HPLC for functional activity. This approach was considered necessary to avoid the need to assay each and ever compound (the would be thousands) in the fruit extracts.
(§2) An IC50 value represents the amount of a compound, in mg, required to inhibit by 50% the platelet aggregation induced under standardised conditions in 1 mL platelet-rich plasma, in comparison with control samples.
(§3) Blood for in vitro studies was collected from drug-free, healthy human volunteers, both male and female, aged 18-60 years, with normal platelet function. Subjects declared that they had not consumed drugs or supplements known to affect platelet function for a minimum of 10 days before providing a blood sample. Blood was collected after single venepuncture to an antecubital vein through siliconized needles into plastic citrated blood collection tubes (Sarstedt Monovettes, final concentration sodium citrate, 13 mmol/L). All blood was maintained at 37° C. from the time of blood sampling.
(§4) Platelet-rich plasma (PRP) was obtained by centrifugation of citrated blood for 15 minutes at 200×g, and was adjusted with platelet-poor plasma to a standard platelet number of 320±20×10^9/L prior to use. PRP was used for platelet function measurements within two hours.
(§5) The following agonists were used for platelet function measurements. Adenosine diphosphate (ADP), final concentration 10 μmol/L; collagen, final concentration 5 mg/L; arachidonic acid, final concentration 500 U/L (all from Helena Biosciences, Sunderland, UK); thrombin receptor-activating peptide (TRAP), final concentration 25 nmol/L (Sigma-Aldrich, Poole, UK). Agonists were prepared from stock solutions immediately before use, diluting into warmed physiological saline (0.9% NaCl).
(§6) Individual platelet inhibitors were prepared at a concentration of between 500 g/L and 100 g/L in either physiological saline, ultra-pure methanol or ultra-pure DMSO (Sigma-Aldrich, Poole, UK) and stored frozen until required. Stock solutions were then diluted with physiological saline immediately prior to use.
(§7) 450 μL PRP was incubated with 50 μL diluted inhibitor solution at 37° C. for 10 minutes, in low-retention epindorrfs. Inhibitor solutions were diluted such that the final concentration of methanol or DMSO in the PRP sample never exceeded 2%. Suitable control samples, containing 50 μL physiological saline matched for methanol or DMSO content as appropriate, were incubated simultaneously. For each inhibitor compound, 5 incubation concentrations were used; final concentrations of 0.05 mg/mL, 0.10 mg/mL, 1.00 mg/mL, 5.00 mg/mL and 10 mg/mL were used as standard.
(§8) After incubation with platelet inhibitors, PRP samples were transferred to glass cuvettes and the extent of aggregation induced by either ADP, collagen, TRAP or arachidonic acid was monitored over 10 minutes on a platelet aggregometer (PACKS 4, Helena Biosciences, Sunderland, UK). A control sample was run with each sample set. From the aggregation curves generated, the area under the curve was calculated for each PRP sample, and the inhibition of aggregation achieved at each inhibitor concentration was calculated by comparing the area under the curve for these PRP samples with that of the control sample. The inhibition of aggregation was expressed as % inhibition, compared to control, and from the 6 data points obtained per inhibitor compound, a dose-response curve was constructed. This curve was then used to predict the IC50 value for that inhibitor compound, as shown in 1.2, Results, and FIG. 1.
(§9) For each blood sample obtained, 6-point dose-response curves for 2 different inhibitory compounds could be generated. […]

The test system of test [2] is platelet aggregation induced by thrombin receptor-activating peptide (TRAP) in platelet-rich plasma. Kind of test: Inhibition of TRAP-induced platelet aggregation in platelet-rich plasma (aggregometer). The settings on record: amount in mg inhibiting aggregation by 50% in 1 mL platelet-rich plasma, TRAP 25 nmol/L, average of at least 3 IC50s; for IC50: Homo sapiens. Here is the method: as §1, §2, §3, §4, §5, §6, §7, §8, §9

For test [3], the system named is platelet aggregation induced by ADP in platelet-rich plasma. Put plainly: Inhibition of ADP-induced platelet aggregation in platelet-rich plasma (aggregometer). Particulars: amount in mg inhibiting aggregation by 50% in 1 mL platelet-rich plasma, ADP 10 μmol/L, average of at least 3 IC50s; for IC50: Homo sapiens. How it is done:
as §1, §2, §3, §4, §5, §6, §7, §8, §9

Test [4] concerns platelet aggregation induced by collagen in platelet-rich plasma. Put plainly: Inhibition of collagen-induced platelet aggregation in platelet-rich plasma (aggregometer). The settings on record: amount in mg inhibiting aggregation by 50% in 1 mL platelet-rich plasma, collagen 5 mg/L, average of at least 3 IC50s; for IC50: Homo sapiens. Here is the method:
as §1, §2, §3, §4, §5, §6, §7, §8, §9

In brackets after ≈: the same amount, converted by molar mass.

For the compound `Nc1ccn([C@@H]2O[C@H](CO)[C@@H](O)[C@H]2O)c(=O)n1` [Compound 1, Cytidine], the IC50 in test [1] was found to be 39000 µg/mL (≈ 160 mM); in test [2], 39 mg/mL (≈ 160 mM); in test [3], 2.42 mg/mL (≈ 9.95 mM); in test [4], 10.7 mg/mL (≈ 43.8 mM).
As for `O=c1ccn([C@@H]2O[C@H](CO)[C@@H](O)[C@H]2O)c(=O)[nH]1` [Compound 3, Uridine], the IC50 was determined as 6.51 mg/mL (≈ 26.7 mM) in test [3] and 16 mg/mL (≈ 65.5 mM) in test [4].
For the compound `Nc1nc2c(ncn2[C@@H]2O[C@H](CO)[C@@H](O)[C@H]2O)c(=O)[nH]1` [Compound 4, Guanosine], it took 26.1 mg/mL (≈ 92 mM) to reach half-maximal inhibition in test [2] (IC50).
Turning to `O=C(/C=C/c1ccc(O)c(O)c1)O[C@@H]1C[C@](O)(C(=O)O)C[C@@H](O)[C@H]1O` [Compound 14, Chlorogenic acid], the “IC50 AA” value in test [1] was 0.77 mg. The “IC50 TRAP” value in test [2] came to 1.1 mg. The “IC50 ADP” value in test [3] came out at 10.08 mg. Besides, the “IC50 Collagen” value in test [4] came to 10.11 mg.
On to `O=C(O)/C=C/c1ccc(O)c(O)c1` [Compound 18, Caffeic acid], for which the IC50 came out at 7330 µg/mL (≈ 40.7 mM) in test [1], 8.03 mg/mL (≈ 44.6 mM) in test [2], 19 mg/mL (≈ 105 mM) in test [3] and 11.4 mg/mL (≈ 63.1 mM) in test [4].
For the compound `O=C(O)/C=C/c1ccc(O)cc1` [Compound 19, p-coumaric acid], the IC50 in test [1] came to 10200 µg/mL (≈ 62 mM); in test [2], 12.8 mg/mL (≈ 78.1 mM); in test [3], 13.2 mg/mL (≈ 80.5 mM); in test [4] it was 14.6 mg/mL (≈ 89.1 mM).
In the case of `O=C(O)c1ccccc1` [Compound 20, Benzoic acid], in test [1], the “IC50 AA” value amounted to 15.45 mg. In addition, the “IC50 TRAP” value in test [2] is 18.19 mg. Besides, in test [3], the “IC50 ADP” value came to 25.11 mg. The “IC50 Collagen” value in test [4] is recorded as 17.74 mg.
Take `COc1cc(/C=C/C(=O)O)ccc1O` [Compound 21, Ferulic acid]: the IC50 is 9940 µg/mL (≈ 51.2 mM) in test [1], 14.7 mg/mL (≈ 75.4 mM) in test [2], 18.7 mg/mL (≈ 96.1 mM) in test [3] and 13.9 mg/mL (≈ 71.6 mM) in test [4].
Consider `C[C@@H]1O[C@@H](OC[C@H]2O[C@@H](Oc3c(-c4ccc(O)c(O)c4)oc4cc(O)cc(O)c4c3=O)[C@H](O)[C@@H](O)[C@@H]2O)[C@H](O)[C@H](O)[C@H]1O` [Compound 27, Rutin], for which the IC50 is 8.96 mg/mL (≈ 14.7 mM) in test [2], 35.2 mg/mL (≈ 57.7 mM) in test [3] and 32.2 mg/mL (≈ 52.7 mM) in test [4].
`O=c1c(O)c(-c2ccc(O)c(O)c2)oc2cc(O)cc(O)c12` [Compound 30, Quercetin]: the IC50 was 3660 µg/mL (≈ 12.1 mM) in test [1] and 19.7 mg/mL (≈ 65 mM) in test [2].
In the same order, the values of `O=c1c(O)c(-c2ccc(O)cc2)oc2cc(O)cc(O)c12` [Compound 31, Kaempferol] are 5180 µg/mL (≈ 18.1 mM) and 26.2 mg/mL (≈ 91.5 mM).
Take `O=C1C[C@@H](c2ccc(O)cc2)Oc2cc(O)cc(O)c21` [Compound 32, Naringenin]: the values for the IC50 in test [1] and in test [2] were 10400 µg/mL (≈ 38.2 mM) and 33.2 mg/mL (≈ 122 mM), respectively.
For Adenosine 3′-monophospate [Compound 5], in test [1], the “IC50 AA” value was determined as 2.41 mg. Also, in test [2], the “IC50 TRAP” value stood at 24.51 mg. Moreover, the “IC50 ADP” value in test [3] is listed as 0.12 mg. Further, the “IC50 Collagen” value in test [4] is 0.28 mg.

The term IC50 denotes the concentration that gives 50% inhibition.
